US7829587B2, “Substituted 2-aminotetralin derivatives as selective alpha 2B agonist” (Allergan, Inc., priority 2008, dated 2010)

Experiments:
Format in all cases: cell-based
human α2A receptor = biological target: T1, human α2A receptor (Homo sapiens, UniProt P08913); experiment: FLIPR Ca+2 influx assay, α2A; settings: for EC50: HEK 293 cells stably expressing human α2A receptor and chimeric G protein Gqi5; for Relative efficacy FLIPR α2A: relative efficacy compared to standard full agonist norepinephrine, HEK 293, human α2A/Gqi5
T1 construct: expressed in transfected cells; host or cells: HEK 293
T1 sequence (P08913 1-465): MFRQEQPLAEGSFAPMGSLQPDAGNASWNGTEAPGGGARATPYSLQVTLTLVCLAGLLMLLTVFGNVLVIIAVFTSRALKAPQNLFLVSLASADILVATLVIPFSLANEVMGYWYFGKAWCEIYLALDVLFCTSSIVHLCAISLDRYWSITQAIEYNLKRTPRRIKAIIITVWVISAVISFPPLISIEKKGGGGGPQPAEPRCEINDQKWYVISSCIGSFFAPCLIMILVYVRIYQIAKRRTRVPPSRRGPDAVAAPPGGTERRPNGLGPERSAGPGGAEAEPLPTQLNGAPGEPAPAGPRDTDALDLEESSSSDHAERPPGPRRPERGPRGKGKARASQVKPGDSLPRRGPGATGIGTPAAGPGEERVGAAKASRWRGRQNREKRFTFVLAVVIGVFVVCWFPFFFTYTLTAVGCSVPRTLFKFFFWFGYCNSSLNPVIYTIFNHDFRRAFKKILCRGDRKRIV
Procedure: (§1) The compounds disclosed herein are agonists of alpha 2B/2C adrenergic receptors. […] This assay is adequate for monitoring the intracellular Ca^2+ mobilization from fluorescent reading to evaluate receptor agonists.
(§2) FLIPR Ca+2 Influx Assay: HEK 293 cells stably expressing the bovine α1A receptor, the rat α1B receptor, the human α2A receptor and the chimeric G protein Gqi5, the human α2C receptor and the chimeric G protein Gqi5 and the mouse α2B receptor and the Gα16 protein were plated in poly-D-lysine coated 384 well plates at 15,000-25,000 cells per well and grown overnight in DMEM supplemented with 10% fetal bovine serum. For FLIPR (fluorometric image plate reader) evaluation, cells were washed 2-4 times with HBSS/HEPES Buffer (1× Hanks Buffered Salt Solution, 20 mM HEPES<pH 7.4) prior to the addition of Fluo-4-AM (4 uM Fluo-4-AM, 0.04% pluronic acid in HBSS/HEPES Buffer), a calcium-sensitive dye. Cells were loaded with Dye for 40 minutes at 30° C., then washed 4-8 times with HBSS/HEPES Buffer to remove excess dye. Cells were preincubated at 37° C. for 3 minutes prior to placement into the FLIPR instrument. The reaction was carried out at 37° C. and was initiated by the addition of the appropriate dilutions of compounds. The transient calcium was captured and the peak height of the calcium curve determined and utilized for calculation of EC50 and efficacy using ActivityBase. Data is stored in the ActivityBase database under the unique identifier “Test Occasion”, which reflects the results of an assay run on a particular date and the individual responsible for the assay. Norepinephrine was the standard full agonist for evaluating alpha1 and alpha2 receptor activity.

mouse α2B receptor = biological target: T2, mouse α2B receptor (Mus musculus, UniProt P30545); experiment: FLIPR Ca+2 influx assay, α2B; settings: for Relative efficacy FLIPR α2B: relative efficacy compared to standard full agonist norepinephrine, HEK 293, mouse α2B/Gα16
T2 construct: expressed in transfected cells; host or cells: HEK 293
T2 sequence (P30545 1-453): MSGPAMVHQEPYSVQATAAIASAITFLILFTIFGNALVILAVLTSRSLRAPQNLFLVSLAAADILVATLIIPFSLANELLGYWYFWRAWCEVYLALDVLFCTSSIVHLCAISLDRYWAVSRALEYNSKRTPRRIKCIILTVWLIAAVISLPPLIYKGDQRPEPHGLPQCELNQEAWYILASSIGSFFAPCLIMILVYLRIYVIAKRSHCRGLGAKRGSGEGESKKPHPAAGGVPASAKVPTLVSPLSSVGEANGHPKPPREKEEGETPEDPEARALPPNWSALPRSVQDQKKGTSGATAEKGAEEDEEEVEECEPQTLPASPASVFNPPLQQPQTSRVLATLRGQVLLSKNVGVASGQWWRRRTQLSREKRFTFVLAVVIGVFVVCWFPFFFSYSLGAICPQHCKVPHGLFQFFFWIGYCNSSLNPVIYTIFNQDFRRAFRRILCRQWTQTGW
Procedure: as §1, §2

human α2C receptor = biological target: T3, human α2C receptor (Homo sapiens, UniProt P18825); experiment: FLIPR Ca+2 influx assay, α2C; settings: for EC50: HEK 293 cells stably expressing human α2C receptor and chimeric G protein Gqi5; for Relative efficacy FLIPR α2C: relative efficacy compared to standard full agonist norepinephrine, HEK 293, human α2C/Gqi5
T3 construct: expressed in transfected cells; host or cells: HEK 293
T3 sequence (P18825 1-462): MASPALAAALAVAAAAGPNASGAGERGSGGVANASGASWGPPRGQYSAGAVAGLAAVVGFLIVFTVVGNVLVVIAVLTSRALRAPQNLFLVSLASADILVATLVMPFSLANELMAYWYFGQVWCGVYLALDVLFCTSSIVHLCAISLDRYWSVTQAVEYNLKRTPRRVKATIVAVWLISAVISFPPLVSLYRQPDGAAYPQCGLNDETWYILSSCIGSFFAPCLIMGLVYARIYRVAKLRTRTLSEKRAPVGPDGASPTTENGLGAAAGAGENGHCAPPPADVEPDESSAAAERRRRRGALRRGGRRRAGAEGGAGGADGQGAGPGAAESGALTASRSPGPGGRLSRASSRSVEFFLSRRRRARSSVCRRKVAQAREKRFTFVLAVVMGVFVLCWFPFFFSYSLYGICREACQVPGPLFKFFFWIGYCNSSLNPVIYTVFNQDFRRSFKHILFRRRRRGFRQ
Procedure: as §1, §2

bovine α1A receptor = biological target: T4, bovine α1A receptor (Bos taurus, UniProt P18130); experiment: FLIPR Ca+2 influx assay, α1A; settings: for EC50: HEK 293 cells stably expressing bovine α1A receptor; for Relative efficacy FLIPR α1A: relative efficacy compared to standard full agonist norepinephrine, HEK 293, bovine α1A
T4 construct: expressed in transfected cells; host or cells: HEK 293
T4 sequence (P18130 1-466): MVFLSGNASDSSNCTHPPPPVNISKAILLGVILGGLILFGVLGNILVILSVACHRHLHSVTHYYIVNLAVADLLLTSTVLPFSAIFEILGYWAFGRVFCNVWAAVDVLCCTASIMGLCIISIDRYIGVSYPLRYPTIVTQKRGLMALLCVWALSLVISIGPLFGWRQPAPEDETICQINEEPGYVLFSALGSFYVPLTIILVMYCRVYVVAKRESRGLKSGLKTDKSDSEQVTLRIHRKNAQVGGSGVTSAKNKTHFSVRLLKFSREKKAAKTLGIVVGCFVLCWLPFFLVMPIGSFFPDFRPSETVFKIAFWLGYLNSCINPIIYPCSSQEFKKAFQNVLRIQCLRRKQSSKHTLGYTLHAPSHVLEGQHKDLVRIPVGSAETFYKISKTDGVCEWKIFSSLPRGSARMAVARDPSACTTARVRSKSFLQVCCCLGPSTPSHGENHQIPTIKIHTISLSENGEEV
Procedure: as §1, §2

rat α1B receptor = biological target: T5, rat α1B receptor (Rattus norvegicus, UniProt P15823); experiment: FLIPR Ca+2 influx assay, α1B; settings: for EC50: HEK 293 cells stably expressing rat α1B receptor; for Relative efficacy FLIPR α1B: relative efficacy compared to standard full agonist norepinephrine, HEK 293, rat α1B
T5 construct: expressed in transfected cells; host or cells: HEK 293
T5 sequence (P15823 1-515): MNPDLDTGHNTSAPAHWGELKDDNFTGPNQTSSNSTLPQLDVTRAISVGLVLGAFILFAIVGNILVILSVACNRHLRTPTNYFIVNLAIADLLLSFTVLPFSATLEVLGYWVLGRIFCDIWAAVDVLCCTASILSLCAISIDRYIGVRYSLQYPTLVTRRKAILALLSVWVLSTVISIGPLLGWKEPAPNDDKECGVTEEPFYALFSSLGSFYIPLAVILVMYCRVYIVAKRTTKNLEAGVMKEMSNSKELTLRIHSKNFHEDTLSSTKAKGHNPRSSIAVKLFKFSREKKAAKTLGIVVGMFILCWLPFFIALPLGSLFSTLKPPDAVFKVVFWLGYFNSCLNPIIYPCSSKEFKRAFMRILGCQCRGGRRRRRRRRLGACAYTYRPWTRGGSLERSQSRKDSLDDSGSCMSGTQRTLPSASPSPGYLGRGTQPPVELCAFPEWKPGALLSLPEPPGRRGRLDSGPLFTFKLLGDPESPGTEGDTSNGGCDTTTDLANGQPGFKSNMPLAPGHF
Procedure: as §1, §2

[1] = HEK 293 cells stably expressing mouse α2B receptor and Gα16 protein

SMILES | EC50 (human α2A receptor) [µM] | Relative efficacy FLIPR α2A (human α2A receptor) | EC50 (mouse α2B receptor; [1]) [µM] | Relative efficacy FLIPR α2B (mouse α2B receptor) | EC50 (human α2C receptor) [µM] | Relative efficacy FLIPR α2C (human α2C receptor) | EC50 (bovine α1A receptor) [µM] | Relative efficacy FLIPR α1A (bovine α1A receptor) | EC50 (rat α1B receptor) [µM] | Relative efficacy FLIPR α1B (rat α1B receptor) | EC50 FLIPR α2B (mouse α2B receptor; [1])
CCCN(Cc1ccncc1)C1CCc2cccc(O)c2C1 (stereo not shown) | > 10 | 0 | 0.058 | 1.06 | – | ND (0.12) | > 10 | 0 | > 10 | 0 | –
CCCN(Cc1ccncc1)[C@@H]1CCc2cccc(O)c2C1 | > 10 | 0 | 0.004 | 0.8 | > 10 | 0 | > 10 | 0 | > 10 | 0 | –
CCN(Cc1cccnc1)C1CCc2cccc(O)c2C1 (stereo not shown) | 4.5 | 0.35 | 0.873 | 0.89 | – | ND (0.43) | 4 | 0.29 | – | ND (0.36) | –
CCN(Cc1ccccn1)C1CCc2cccc(OC)c2C1 (stereo not shown) | > 10 | 0 | 0.647 | 0.14 | > 10 | 0 | > 10 | 0 | > 10 | 0 | –
CCN(Cc1ccccn1)C1CCc2cccc(O)c2C1 (stereo not shown) | > 10 | 0 | 0.733 | 0.28 | > 10 | 0 | > 10 | 0 | > 10 | 0 | –
CCCN(Cc1ccccn1)C1CCc2cccc(OC)c2C1 (stereo not shown) | > 10 | 0 | 0.363 | 0.63 | > 10 | 0 | > 10 | 0 | > 10 | 0 | –
CCCN(Cc1ccccn1)C1CCc2cccc(O)c2C1 (stereo not shown) [drawing 20] | > 10 | 0 | 0.568 | 0.69 | > 10 | 0 | > 10 | 0 | > 10 | 0 | –

The remaining lines, values ahead:

EC50 (human α2A receptor) [µM] | Relative efficacy FLIPR α2A (human α2A receptor) | EC50 (mouse α2B receptor; [1]) [µM] | Relative efficacy FLIPR α2B (mouse α2B receptor) | EC50 (human α2C receptor) [µM] | Relative efficacy FLIPR α2C (human α2C receptor) | EC50 (bovine α1A receptor) [µM] | Relative efficacy FLIPR α1A (bovine α1A receptor) | EC50 (rat α1B receptor) [µM] | Relative efficacy FLIPR α1B (rat α1B receptor) | EC50 FLIPR α2B (mouse α2B receptor; [1]) | SMILES
1.85 | 0.22 | 0.036 | 1.0 | 2.15 | 0.69 | > 10 | 0 | > 10 | 0 | – | CCCN(Cc1ccncc1)C1CCc2cccc(OC)c2C1 (stereo not shown)
0.424 | 0.34 | – | 1.02 | 0.557 | 0.67 | > 10 | 0 | > 10 | 0 | potent | CCCN(Cc1ccncc1)[C@@H]1CCc2cccc(OC)c2C1
0.203 | 0.74 | 0.078 | 0.91 | 0.253 | 0.72 | > 10 | 0 | > 10 | 0 | – | CCN(Cc1ccncc1)C1CCc2cccc(OC)c2C1 (stereo not shown)
5.5 | 0.16 | 0.185 | 1.08 | 6.7 | 0.17 | – | ND (0.1) | – | ND (0.15) | – | CCN(Cc1ccncc1)C1CCc2cccc(O)c2C1 (stereo not shown)
0.442 | 0.51 | 0.614 | 0.26 | 0.652 | 0.52 | > 10 | 0 | > 10 | 0 | – | CCN(Cc1cccnc1)C1CCc2cccc(OC)c2C1 (stereo not shown)
> 1 | 0 | 0.82 | 0.47 | – | ND (0.13) | > 10 | 0 | > 10 | 0 | – | CCCN(Cc1cccnc1)C1CCc2cccc(OC)c2C1 (stereo not shown)
